Laboratory results published in PubChem BioAssay (NCI).
Where “and” joins values, the source holds several entries; their conditions need not be identical. Identical values can stand only once.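 Dose response: 5 concentrations. Exposure: 48 h. Format: 96-well plates. Endpoint: linear interpolation; highest concentration if not reached. GI50: concentration for 50% inhibition of growth. TGI is the concentration that stops growth completely.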

Columns and labels:
Experiment in all cases: NCI tumour cell line growth inhibition, 48 h
A549 NSCLC = test system: A549 NSCLC
CCRF-CEM leukemia = test system: CCRF-CEM leukemia
EKVX NSCLC = test system: EKVX NSCLC
HCT-15 colon = test system: HCT-15 colon
K-562 leukemia = test system: K-562 leukemia
OVCAR-3 ovarian = test system: OVCAR-3 ovarian
OVCAR-8 ovarian = test system: OVCAR-8 ovarian
SN12C renal = test system: SN12C renal
UACC-257 melanoma = test system: UACC-257 melanoma
UO-31 renal = test system: UO-31 renal

Compound | GI50 (A549 NSCLC) | TGI (A549 NSCLC) | GI50 (CCRF-CEM leukemia) | TGI (CCRF-CEM leukemia) | GI50 (EKVX NSCLC) | TGI (EKVX NSCLC) | GI50 (HCT-15 colon) | TGI (HCT-15 colon) | GI50 (K-562 leukemia) | TGI (K-562 leukemia) | GI50 (OVCAR-3 ovarian) | TGI (OVCAR-3 ovarian) | GI50 (OVCAR-8 ovarian) | TGI (OVCAR-8 ovarian) | GI50 (SN12C renal) | TGI (SN12C renal) | GI50 (UACC-257 melanoma) | TGI (UACC-257 melanoma) | GI50 (UO-31 renal) | TGI (UO-31 renal)
Cn1c(NCC(CN2CCCC2)OC(=O)c2ccccc2)cc(=O)n(C)c1=O (centres undefined) | > 100 µM | > 100 µM | 0.0757 µM | 4.06 µM | > 100 µM | > 100 µM | > 100 µM | > 100 µM | > 100 µM | > 100 µM | > 100 µM | > 100 µM | > 100 µM | > 100 µM | > 100 µM | > 100 µM | > 100 µM | > 100 µM | > 100 µM | > 100 µM
O=C(O)c1cn(C2CC2)c2cc(N3CCN(C(=O)Nc4nc(-c5ccc(Br)cc5)cs4)CC3)c(F)cc2c1=O | 3.68 µM | > 100 µM | 1.23 µM | > 100 µM |  |  | 1.75 µM | > 100 µM | 1.51 µM | > 100 µM | 1.42 µM | > 100 µM | 3.72 µM | > 100 µM | 3.07 µM | > 100 µM |  |  | 1.64 µM | > 100 µM
FC(F)(F)c1cc(-c2ncn(/C=C\c3nnco3)n2)cc(C(F)(F)F)c1 | 0.0586 µM | > 42.3 µM | 0.107 µM | > 100 µM |  |  | 0.133 µM | > 33.4 µM | 0.06 µM | > 42.2 µM | 0.06 µM | 1.42 µM | 0.0589 µM | > 47.7 µM | 0.417 µM | > 100 µM | 0.0673 µM | > 66.4 µM | 0.151 µM | > 100 µM
O=C(Cc1ccccc1)N/N=C(/c1nc2ccc([N+](=O)[O-])cc2[nH]c1=O)C(O)c1ccccc1Cl (centres undefined) |  | > 100 µM |  | > 100 µM |  | > 100 µM |  | > 100 µM |  | > 100 µM |  |  |  | > 100 µM |  | > 100 µM |  | > 100 µM |  | > 100 µM
C=C1C(=O)OC2CC1C(OC(C)=O)C/C(C)=C/CC/C(C)=C\CCC2(C)O (centres undefined) |  | 33.2 µM and 51.1 µM | 0.469 µM and 2.36 µM |  |  | 16 µM and 14 µM |  | 13.5 µM and 3.63 µM |  |  |  | 21.1 µM and 51.2 µM |  | 14.6 µM and 12.6 µM |  | 11.3 µM and 16.6 µM |  | 18.7 µM and 12.7 µM |  | 18.3 µM and 12.3 µM
CCCCCCc1cc2cc(-c3csc(/C=C/c4ccccc4)n3)c(=O)oc2cc1O | 4.27 µM | 19 µM | 4.2 µM | 15 µM |  |  | 5.53 µM | > 100 µM | 6.13 µM | 80.3 µM | 3.52 µM | 9.98 µM | 2.79 µM | 9.55 µM | 2.12 µM | 4.43 µM | 40.4 µM | > 100 µM | 15.7 µM | > 100 µM
N#Cc1c2ccccc2c2nnc3ccccc3n12 | 13.5 µM | 36.7 µM |  |  | 12.6 µM | 72.1 µM | 21.5 µM | > 100 µM | 81.9 µM | > 100 µM | 59.7 µM | > 100 µM | 11.1 µM | 45.9 µM |  |  |  |  | 20 µM | > 100 µM
